A short description of data set [1]: Biodistribution in B16/F1 flank tumor bearing C57 mice. The format is in vivo. The note with it: both sexes, C57, mouse, tumor (B16/F1 flank tumor), iv, 0.27 mCi, total radioactivity; 40 min post injection; tail vein. As to the method: (§1) Pilot Animal Studies using ^62Cu labeled Peptide: Biodistribution and PET studies of radiolabeled ^62Cu-NOTA-2-GGG-Arg11 were performed in B16/F1 flank tumor bearing C57 mice utilizing the newly designed nanogenerator with the 5 μg lyophilized peptide kits. Fourteen male and female, 6-8 week old mice were injected with B16/F1 cells (1,000,000/mouse) in the flanks or shoulders while anesthetized to induce solid tumors. B16/F1 solid tumors appeared in 14 days post inoculation. Radiolabeled peptides were injected through the tail vein at an average of 0.27 mCi per dose administration for biodistribution studies and an average of 0.7 mCi for imaging, achieving specific activities of 111.2-140.4 Ci/μmol (mean=122.1 Ci/μmol), and an average of 94.0% radiolabeling yield without a purification step after synthesis. Animals in the biodistribution studies were sacrificed by cervical dislocation followed by pneumothorax at 10, 20, and 40 min post administration, major organs removed, weighed, and radioactivity quantitated in a windowed gamma counter.
(§2) Uptake was measured for the tumor, blood, heart, lung, liver, small intestine, intestine, kidneys, muscle, carcass and paper, and skin. Tumor uptake was rapid, reaching 4.65±0.48 ID/g and 9.43±2.69% ID/g at 20 and 40 min post injection, respectively.

In data set [2] the test system is B16/F1 flank tumor. The data set is described as above. It is filed as in vivo. Particulars: for Tumor uptake: tail vein. As to the method: as §1, §2
Another data set concerns melanoma cells. The data set can be described thus: In vitro cell binding of radiolabeled peptide. Particulars: 1 million cells per well, 320,000 cpm; maximum at 10 min, constant for 50 min. It is filed as cell-based. As to the method:
Tissue culture wells containing 1 million cells each were incubated with 320,000 cpm of ^62Cu-NOTA-2-GGG-Arg11 for various times between 5 min and 50 min then washed and counted. […] In vitro cell binding of 10% for the ^62Cu-NOTA-2-GGG-Arg11 peptide is similar to then in vitro cell uptake percentages for HPLC purified.

Data set [3] relates to B16/F1 flank tumor. Kind of data set: PET imaging study in tumor bearing mice (microPET-Focus). The format is in vivo. The note with it: static imaging for 20 min starting 10 min post administration. As to the method: as §1, with “Radiolabeled peptides were injected through the tail vein at an average of 0.27 mCi per dose administration for biodistribution studies and an average of 0.7 mCi for imaging, achieving specific activities of 111.2-140.4 Ci/μmol (mean=122.1 Ci/μmol), and an average of 94.0% radiolabeling yield without a purification step after synthesis.” left out
A preliminary PET imaging study was also performed, in which two anesthetized animals were used for PET imaging studies starting at 10 min post administration of the radiolabeled peptide and statically imaged with a microPET-Focus scanner (Siemens Preclinical Solutions, Knoxville, Tenn.) for 20 min (see FIG. 9). […] Background levels of radioactivity in the blood and major organs and tissues were low, except for the kidneys.

A further data set deals with T1, melanocortin-1 receptor (Mus musculus, UniProt Q01727).
T1 construct: endogenous in cells; host or cells: B16/F1 cells
T1 sequence (Q01727 whole entry): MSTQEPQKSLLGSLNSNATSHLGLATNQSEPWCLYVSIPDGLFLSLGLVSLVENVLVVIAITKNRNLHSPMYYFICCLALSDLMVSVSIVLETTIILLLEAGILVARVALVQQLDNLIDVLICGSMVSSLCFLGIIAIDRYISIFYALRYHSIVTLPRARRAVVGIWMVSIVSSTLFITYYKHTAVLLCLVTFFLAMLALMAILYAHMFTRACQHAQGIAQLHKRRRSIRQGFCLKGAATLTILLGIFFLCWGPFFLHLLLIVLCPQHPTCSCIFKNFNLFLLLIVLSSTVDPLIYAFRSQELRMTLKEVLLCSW
Particulars: comparison value for the optimal peptide construct for Cu-64; cited from earlier work.

Non-standard residues stand in square brackets, D forms with d. Residues, ends and D or L forms follow the SMILES beside them. *: point of attachment. NOTA = O=C(O)CN1CCN(CC(=O)O)CCN(CC(=O)*)CC1

With `CC(C)[C@H](NC(=O)[C@@H]1CCCN1C(=O)[C@H](CCCNC(=N)N)NC(=O)[C@H](CS)NC(=O)[C@H](Cc1c[nH]c2ccccc12)NC(=O)[C@H](CCCNC(=N)N)NC(=O)[C@@H](Cc1ccccc1)NC(=O)[C@H](Cc1c[nH]cn1)NC(=O)[C@H](CCC(=O)O)NC(=O)[C@H](CS)NC(=O)[C@H](CS)NC(=O)CNC(=O)CNC(=O)CNC(=O)CN1CCN(CC(=O)O)CCN(CC(=O)O)CC1)C(N)=O` [^62Cu-NOTA-2-GGG-Arg11, metal not drawn] ({NOTA}-GGGCCEH[dF]RWCRPV-NH2), the tissue uptake at 40 min in data set [1] stood at 9.43 ± 2.69 %ID/g. In addition, in the data set with B16/F1 flank tumor [2] (20 min post injection, 20 μg non-labeled NDP-MSH co-injected), the “Tumor uptake in the blocked mice relative to radiolabeled peptide alone” value is listed as 0.55 % of tumor uptake in the mice receiving the radiolabeled peptide alone. In addition, the Tumor uptake in the data set with B16/F1 flank tumor [2] (20 min post injection) is 4.65 ± 0.48 %ID/g; in the data set with B16/F1 flank tumor [2] (40 min post injection), 9.43±2.69 % ID/g. Further, in the data set with B16/F1 flank tumor [2] (biodistribution at 10, 20 and 40 min), the “Clearance and route of excretion” value was “clearance from the blood and non-target tissues except for the kidneys, which was the primary route of excretion”. For the same molecule, the “Maximum cell uptake of the radiolabeled peptide” value with melanoma cells stood at 10%. The PET tumor visualization entry with B16/F1 flank tumor [3] was “tumor is clearly visualized”.
As to “CBTE2A-ReCCMSH [CBTE2A conjugated ReCCMSH peptide, the optimal peptide construct for Cu-64]”, at melanocortin-1 receptor, the 50% inhibitory concentration (IC50) was 5.4 nM.
